The assay concerns 349418-098-R-PDC complex spheroid growth. The assay can be described thus: Anticancer human tumor 349418-098-R-PDC patient-derived lung adenocarcinoma cell line growth inhibition [AhR]. To be noted: for viability, T/C: stronger effect = lower value. Put shortly: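 Complex tumor spheroids co-cultured with HUVEC and human MSC stroma; AhR antagonists tested in combination with standard-of-care and investigational agents. Top concentration at or near clinical Cmax (else 10 microM), half-log dilutions; growth expressed as percent test/control.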

[1] abbreviates: curve of first compound, second compound 0.1 µM.
The mark [2] stands for this setting: curve of first compound, second compound 0.316 µM.
[3] abbreviates: curve of first compound, second compound 1 µM.
Setting [4] is: curve of first compound, second compound 3.16 µM.
Where [5] appears, read: curve of first compound, second compound 10 µM.
[6] abbreviates: second compound 0.1 µM, first compound 0.000316 µM.
Where [7] appears, read: second compound 0.1 µM, first compound 0.001 µM.
Where [8] appears, read: second compound 0.1 µM, first compound 0.00316 µM.
[9] abbreviates: second compound 0.1 µM, first compound 0.01 µM.
[10] abbreviates: second compound 0.1 µM, first compound 0.0316 µM.
The mark [11] stands for this setting: second compound 0.1 µM, first compound 0.1 µM.
[12] abbreviates: second compound 0.316 µM, first compound 0.000316 µM.
[13] abbreviates: second compound 0.316 µM, first compound 0.001 µM.
[14] abbreviates: second compound 0.316 µM, first compound 0.00316 µM.
[15] abbreviates: second compound 0.316 µM, first compound 0.01 µM.
Where [16] appears, read: second compound 0.316 µM, first compound 0.0316 µM.
[17] abbreviates: second compound 0.316 µM, first compound 0.1 µM.
Setting [18] is: second compound 1 µM, first compound 0.000316 µM.
[19] abbreviates: second compound 1 µM, first compound 0.001 µM.
Setting [20] is: second compound 1 µM, first compound 0.00316 µM.
Where [21] appears, read: second compound 1 µM, first compound 0.01 µM.
Setting [22] is: second compound 1 µM, first compound 0.0316 µM.
Where [23] appears, read: second compound 1 µM, first compound 0.1 µM.
[24] abbreviates: second compound 3.16 µM, first compound 0.000316 µM.
Where [25] appears, read: second compound 3.16 µM, first compound 0.001 µM.
[26] abbreviates: second compound 3.16 µM, first compound 0.00316 µM.
[27] abbreviates: second compound 3.16 µM, first compound 0.01 µM.
[28] abbreviates: second compound 3.16 µM, first compound 0.0316 µM.
Setting [29] is: second compound 3.16 µM, first compound 0.1 µM.
Where [30] appears, read: second compound 10 µM, first compound 0.000316 µM.
The mark [31] stands for this setting: second compound 10 µM, first compound 0.001 µM.
[32] abbreviates: second compound 10 µM, first compound 0.00316 µM.
The mark [33] stands for this setting: second compound 10 µM, first compound 0.01 µM.
Where [34] appears, read: second compound 10 µM, first compound 0.0316 µM.
Where [35] appears, read: second compound 10 µM, first compound 0.1 µM.

From PubChem BioAssay AID1918996 (Molecular Pharmacology Branch, DTP, NCI, 2023) come the findings set out here.

For orientation: IC50 means the concentration at which inhibition is half-maximal. One may read the viability, T/C as the ratio of treated to control.

Where “and” joins values, the source holds several entries; their conditions need not be identical. Equal entries are not always repeated.
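Also: spheroids exposed to agents for seven days before luminescence viability read.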
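For viability, T/C in this document: spheroids also contain HUVEC endothelial cells and human MSC stroma.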

Consider `Cn1ncnc1C1c2n[nH]c(=O)c3cc(F)cc(c23)NC1c1ccc(F)cc1` (centres undefined) + Cc1ccccc1N=Nc1ccc(NC(=O)c2ccnn2C)c(C)c1, for which the IC50 is, setting by setting: under setting [1], above 100 nM; under setting [2], above 100 nM; under setting [3], above 100 nM; under setting [4], above 100 nM; under setting [5], above 100 nM. Moreover, the viability, T/C reads like this: under setting [6], 106%; under setting [7], 93.8%; under setting [8], 118%; under setting [9], 56.1%; under setting [10], 99.1%; under setting [11], 67.4%. Further, the viability, T/C under setting [12] is 110%; the viability, T/C under setting [13] is 87.2%; the viability, T/C under setting [14] is 113%; the viability, T/C under setting [15] is 74.1%; the viability, T/C under setting [16] was 115%; the viability, T/C under setting [17] was 71.6%. For the same compound, the viability, T/C is, setting by setting: under setting [18], 82.9%; under setting [19], 102%; under setting [20], 106%; under setting [21], 89.9%; under setting [22], 94.2%; under setting [23], 80.6%. In addition, the viability, T/C runs as follows: under setting [24], 72.1%; under setting [25], 90.2%; under setting [26], 98.8%; under setting [27], 79%; under setting [28], 71.4%; under setting [29], 63.6%. The viability, T/C is, setting by setting: under setting [30], 61.5%; under setting [31], 71.8%; under setting [32], 76.2%; under setting [33], 51.2%; under setting [34], 70.8%; under setting [35], 55.6%.

Turning to `COc1cc(C2c3cc4c(cc3C(OC3OC5COC(C)OC5C(O)C3O)C3COC(=O)C23)OCO4)cc(OC)c1O` (centres undefined), the viability, T/C by setting is: (compound 0.0316 µM) 99.4% and 112% and 89.4%; (compound 0.1 µM) 99.9% and 91.1% and 91.7%; (compound 0.316 µM) 64.6% and 71% and 38.2%; (compound 1 µM) 22.5% and 31.2% and 21.6%; (compound 3.16 µM) 11.2% and 15.4% and 15.3%; (compound 10 µM) 5.4% and 11.7% and 12.5%. In addition, under “curve of compound”, the IC50 is 479 nM and 566 nM and 244 nM.

With `COc1ccc([C@@H](O)c2cc(-c3ncnc4cc(N5CCOCC5)ccc34)c(F)cc2Cl)nn1`, the viability, T/C is 97.4% and 104% and 117% (compound 0.0316 µM); 112% and 77.3% and 98.6% (compound 0.1 µM); 101% and 83.1% and 51.5% (compound 0.316 µM); 84.5% and 66.4% and 65.3% (compound 1 µM); 57.2% and 33.5% and 38.6% (compound 3.16 µM); 16.7% and 11.3% and 12.6% (compound 10 µM). In addition, the IC50 (curve of compound) was 3790 nM and 1770 nM and 1160 nM.

Take `CC[C@@]1(O)C(=O)OCc2c1cc1n(c2=O)Cc2cc3c(CN(C)C)c(O)ccc3nc2-1` + Cc1cncc(-c2nc(NCCc3c[nH]c4ccccc34)c3ncn(C(C)C)c3n2)c1: the IC50 was 15.3 nM under setting [1]; 14.1 nM under setting [2]; 14.4 nM under setting [3]; below 0.316 nM under setting [4]; below 0.316 nM under setting [5]. Further, the viability, T/C is, setting by setting: under setting [6], 102%; under setting [7], 93.9%; under setting [8], 91.6%; under setting [9], 60.7%; under setting [10], 29.4%; under setting [11], 6.14%. Besides, the viability, T/C is 87.3% under setting [12]; 94% under setting [13]; 86.4% under setting [14]; 60.3% under setting [15]; 23.8% under setting [16]; 6.37% under setting [17]. Also, the viability, T/C is, setting by setting: under setting [18], 90.6%; under setting [19], 93.5%; under setting [20], 84.2%; under setting [21], 62%; under setting [22], 24.5%; under setting [23], 7.22%. In addition, the viability, T/C runs as follows: under setting [24], 24.8%; under setting [25], 19.5%; under setting [26], 21%; under setting [27], 14.4%; under setting [28], 10.1%; under setting [29], 5.91%. Also, the viability, T/C is 1.41% under setting [30]; 1.47% under setting [31]; 1.56% under setting [32]; 1.49% under setting [33]; 1.32% under setting [34]; 1.19% under setting [35].

Take `O=C(C=Cn1cnc(-c2cc(C(F)(F)F)cc(C(F)(F)F)c2)n1)NNc1cnccn1` + Cc1cncc(-c2nc(NCCc3c[nH]c4ccccc34)c3ncn(C(C)C)c3n2)c1: the IC50 under setting [1] is 61.5 nM; the IC50 under setting [2] came out at 78.7 nM; the IC50 under setting [3] is 50.2 nM; the 50% inhibitory concentration (IC50) under setting [4] was below 9.49 nM; the IC50 under setting [5] is below 9.49 nM. Moreover, the viability, T/C (second compound 0.1 µM, first compound 0.00949 µM) was 109%; the viability, T/C (second compound 0.1 µM, first compound 0.03 µM) is 76.7%; the viability, T/C (second compound 0.1 µM, first compound 0.0949 µM) was 34.4%; the viability, T/C (second compound 0.1 µM, first compound 0.3 µM) is 10.9%; the viability, T/C (second compound 0.1 µM, first compound 0.949 µM) is 7.84%; the viability, T/C (second compound 0.1 µM, first compound 3 µM) is 4.75%. Further, the viability, T/C (second compound 0.316 µM, first compound 0.00949 µM) is 103%; the viability, T/C (second compound 0.316 µM, first compound 0.03 µM) was 89.4%; the viability, T/C (second compound 0.316 µM, first compound 0.0949 µM) was 42.3%; the viability, T/C (second compound 0.316 µM, first compound 0.3 µM) was 11.7%; the viability, T/C (second compound 0.316 µM, first compound 0.949 µM) is 7.07%; the viability, T/C (second compound 0.316 µM, first compound 3 µM) was 4.9%. For the same compound, the viability, T/C was 95.8% (second compound 1 µM, first compound 0.00949 µM); 69.8% (second compound 1 µM, first compound 0.03 µM); 25.5% (second compound 1 µM, first compound 0.0949 µM); 9.9% (second compound 1 µM, first compound 0.3 µM); 9.14% (second compound 1 µM, first compound 0.949 µM); 5.61% (second compound 1 µM, first compound 3 µM). Further, the viability, T/C (second compound 3.16 µM, first compound 0.00949 µM) was 31.8%; the viability, T/C (second compound 3.16 µM, first compound 0.03 µM) is 20.6%; the viability, T/C (second compound 3.16 µM, first compound 0.0949 µM) was 14.7%; the viability, T/C (second compound 3.16 µM, first compound 0.3 µM) was 8.17%; the viability, T/C (second compound 3.16 µM, first compound 0.949 µM) is 7.95%; the viability, T/C (second compound 3.16 µM, first compound 3 µM) was 5.5%. For the same compound, the viability, T/C was 3.16% (second compound 10 µM, first compound 0.00949 µM); 2.76% (second compound 10 µM, first compound 0.03 µM); 2.56% (second compound 10 µM, first compound 0.0949 µM); 2.42% (second compound 10 µM, first compound 0.3 µM); 1.78% (second compound 10 µM, first compound 0.949 µM); 1.96% (second compound 10 µM, first compound 3 µM).
